Values of other authors, collected in patent US20180125916A1, “System and Method for Natural Hair Loss Prevention Oil” (priority 2016, published 2018).

System: male pattern baldness

SMILES | sexual dysfunction side effect (administered orally) | shedding on use (first 2 months of use) | itching as a side effect (in vivo)
CC(C)(C)NC(=O)[C@H]1CC[C@H]2[C@@H]3CC[C@H]4NC(=O)C=C[C@]4(C)[C@H]3CC[C@]12C [Finasteride] | known to cause permanent sexual dysfunction |  | 
Nc1cc(N2CCCCC2)nc(N)[n+]1[O-] [Minoxidil] |  | can cause shedding in the first 2 months of use | high likelihood of a considerable itching
